This passage reports IC50 results from patent US8551988B2, “Benzimidazole derivatives: preparation and pharmaceutical applications” (Mei Pharma, Inc., priority 2003, dated 2013).

The target of experiment [1] is HDAC8 enzyme (recombinant GST-HDAC8) (Homo sapiens (Human), UniProt Q9BY41). The experiment can be described thus: In vitro HDAC assay (BIOMOL fluorescent-based HDAC activity assay), HDAC8. Type of experiment: biochemical.
Experimental: (§1) The assay has been carried out in 96 well format and the BIOMOL fluorescent-based HDAC activity assay has been applied. […] Flur de lys Developer was added and the reaction was incubated for 10 min. Briefly, deacetylation of the substrate sensitizes it to the developer, which then generates a fluorophore (symbol). The fluorophore is excited with 360 nm light and the emitted light (460 nm) is detected on a fluorometric plate reader (Tecan Ultra Microplate detection system, Tecan Group Ltd.).
(§2) The analytical software, Prism 3.0 has been used to generate IC50 from a series of data.
The target of experiment [2] is HDAC1 enzyme (recombinant GST-HDAC1) (Homo sapiens (Human), UniProt Q13547). The experiment can be described thus: In vitro HDAC assay (BIOMOL fluorescent-based HDAC activity assay), HDAC1. It counts as biochemical.
HDAC1 enzyme (recombinant GST-HDAC1), sequence (Q13547 whole entry): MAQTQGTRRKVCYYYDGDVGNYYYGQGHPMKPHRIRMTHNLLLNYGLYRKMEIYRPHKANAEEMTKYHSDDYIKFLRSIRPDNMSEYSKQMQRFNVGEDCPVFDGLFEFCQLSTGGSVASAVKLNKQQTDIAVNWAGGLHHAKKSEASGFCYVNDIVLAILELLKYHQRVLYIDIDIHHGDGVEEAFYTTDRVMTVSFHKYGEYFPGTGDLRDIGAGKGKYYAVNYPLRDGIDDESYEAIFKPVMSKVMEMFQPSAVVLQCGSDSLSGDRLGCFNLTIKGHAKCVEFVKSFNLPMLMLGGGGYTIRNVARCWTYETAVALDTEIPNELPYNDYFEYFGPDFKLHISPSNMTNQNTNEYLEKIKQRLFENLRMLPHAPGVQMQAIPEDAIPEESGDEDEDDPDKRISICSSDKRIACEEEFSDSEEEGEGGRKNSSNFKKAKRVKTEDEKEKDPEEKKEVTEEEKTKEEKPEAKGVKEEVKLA
Experimental: as §1, §2
[3] abbreviates: read-out: HDAC8 Enzyme Activity IC50.
The mark [4] stands for this setting: read-out: HDAC1 Enzyme Activity IC50.

The structures appear in SMILES notation. Read-outs that look alike come from different tables or passages of the source.

HDAC8 enzyme (recombinant GST-HDAC8), sequence (Q9BY41 whole entry): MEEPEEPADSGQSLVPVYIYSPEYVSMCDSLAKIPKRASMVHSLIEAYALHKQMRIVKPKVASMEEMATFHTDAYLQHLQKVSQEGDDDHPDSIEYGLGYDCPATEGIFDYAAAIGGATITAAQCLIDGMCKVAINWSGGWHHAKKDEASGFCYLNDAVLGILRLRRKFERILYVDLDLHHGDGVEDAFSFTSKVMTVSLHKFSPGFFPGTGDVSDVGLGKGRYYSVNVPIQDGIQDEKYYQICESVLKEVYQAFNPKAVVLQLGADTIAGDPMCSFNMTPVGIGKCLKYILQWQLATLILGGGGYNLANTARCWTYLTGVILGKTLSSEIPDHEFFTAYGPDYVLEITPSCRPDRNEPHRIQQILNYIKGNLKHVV

Take `O=C(/C=C/c1ccc2c(c1)nc(CCc1ccccc1)n2Cc1cccnc1)NO` [Compound 12, N-Hydroxy-3-[1-(3-pyridylmethyl)-2-(2-phenyl-ethyl)-1H-benzimidazol-5-yl]-acrylamide]: the IC50 in experiment [1] (setting [3]) came out at 202 nM; in experiment [2] (setting [4]) it was 131 nM.
As to `O=C(/C=C/c1ccc2c(c1)nc(-c1ccncc1)n2CCO)NO` [Compound 10, N-Hydroxy-3-[1-(2-hydroxy-ethyl)-2-(4-pyridyl)-1H-benzimidazol-5-yl]-acrylamide], the 50% inhibitory concentration (IC50) in experiment [1] (setting [3]) was 883 nM; in experiment [2] (setting [4]), 2660 nM.
Turning to `O=C(/C=C/c1ccc2c(c1)nc(CCc1ccccc1)n2Cc1ccccc1)NO` [Compound 33, N-Hydroxy-3-(1-Benzyl-2-phenethyl-1H-benzimidazol-5-yl}-acrylamide], the IC50 in experiment [1] (setting [3]) is 1450 nM; in experiment [2] (setting [4]), 449 nM.
`O=C(/C=C/c1ccc2c(c1)nc(CCc1ccccc1)n2Cc1ccccn1)NO` [Compound 16, N-Hydroxy-3-(2-phenethyl-1-(pyridin-2-yl)methyl-1H-benzimidazol-5-yl)-acrylamide]: the IC50 amounted to 366 nM in experiment [1] (setting [3]) and 194 nM in experiment [2] (setting [4]).
Regarding `O=C(/C=C/c1ccc2c(c1)nc(COCc1ccccc1)n2CCCO)NO` [Compound 19], the IC50 in experiment [1] (setting [3]) was 145 nM; in experiment [2] (setting [4]), 165 nM.
As to `O=C(/C=C/c1ccc2c(c1)ncn2Cc1ccccc1)NO` [Compound 35, N-Hydroxy-3-(1-Benzyl-1H-benzimidazol-5-yl}-acrylamide], the half-maximal inhibitory concentration (IC50) in experiment [1] (setting [3]) came out at 412 nM; in experiment [2] (setting [4]), 371 nM.
Take `O=C(/C=C/c1ccc2c(c1)nc(CCc1ccccc1)n2CCc1cccnc1)NO` [Compound 27, N-Hydroxy-3-(2-phenethyl-1-(2-pyridin-3-yl-ethyl)-1H-benzimidazol-5-yl]-acrylamide]: the results for the 50% inhibitory concentration (IC50) in experiment [1] (setting [3]) and in experiment [2] (setting [4]) were 329 nM and 92 nM, respectively.
Consider `CC(C)Cc1nc2cc(/C=C/C(=O)NO)ccc2n1Cc1ccccc1` [Compound 34, N-Hydroxy-3-(1-Benzyl-2-isobutyl-1H-benzimidazol-5-yl}-acrylamide], for which the 50% inhibitory concentration (IC50) in experiment [1] (setting [3]) stood at 846 nM; in experiment [2] (setting [4]) it was 1460 nM.
For `O=C(/C=C/c1ccc2c(c1)nc(-c1ccccn1)n2CC(O)CO)NO` (stereo not drawn) [Compound 9, N-Hydroxy-3-[1-(2,3-hydroxy-propyl)-2-(2-pyridyl)-1H-benzimidazol-5-yl]-acrylamide], the IC50 in experiment [1] (setting [3]) came to 344 nM; in experiment [2] (setting [4]) it was 1340 nM.
Take `O=C(/C=C/c1ccc2c(c1)nc(CCc1ccccc1)n2CCCN1CCCC1=O)NO` [Compound 30, N-Hydroxy-3-{1-[3-(2-oxo-pyrrolidin-1-yl)-propyl]-2-phenethyl-1H-benzimidazol-5-yl}-acrylamide]: the figures for the IC50 in experiment [1] (setting [3]) and in experiment [2] (setting [4]) were 724 nM and 195 nM, respectively.
For the molecule `CN(C)CC(C)(C)Cn1c(CCc2ccccc2)nc2cc(/C=C/C(=O)NO)ccc21` [Compound 17, N-Hydroxy-3-[1-(3-Dimethylamino-2,2-dimethyl-propyl)-2-phenethyl-1H-benzimidazol-5-yl]-acrylamide], the half-maximal inhibitory concentration (IC50) worked out at 353 nM in experiment [1] (Free base, read-out: IC50 (HDAC8)); 29 nM in experiment [2] (Free base, read-out: IC50 (HDAC1)); 44 nM in experiment [2] (Salt of HCl, read-out: IC50 (HDAC1)); 51 nM in experiment [2] (Salt of Methane sulfonic acid, read-out: IC50 (HDAC1)).
